In patent US20230278997A1, “BICYCLO[1.1.1]PENTANE COMPOUNDS FOR THE TREATMENT AND PROPHYLAXIS OF HEPATITIS B VIRUS INFECTION” (Hoffmann-La Roche Inc., priority 2020, published 2023):
Where two headings read alike, the source gives them in different places.

Legend:
[1] = test system: HBsAg; experiment: microbe, parasite or virus in culture; format: cell-based, HBV; conditions: Hepatitis B virus, read-out: HBsAg IC50
[2] = test system: HBeAg; experiment: microbe, parasite or virus in culture; format: cell-based, HBV; conditions: Hepatitis B virus, read-out: HBeAg IC50
[3] = test system: primary human hepatocyte (PHH); experiment: Cytotoxicity in PHH natural infection assay (Cell Counting Kit-8); format: cell-based; conditions: therapeutic index; CC50 by CCK8 in PHH over HBsAg IC50
Description: Detailed procedures regarding primary human hepatocyte (PHH) HBV natural infection assay are described as below. One tube of frozen PHH (10 million cells) was thawed in 37° C. water bath and then transferred to 20 mL of PHH thawing medium (Sigma, InVitroGRO HT Medium, Cat. 503319) with gently mixing. The cells were then centrifuged at […] for 5 min, the supernatant was discarded and the tube was refilled with 25 mL of PHH plating medium (Sigma, InVitroGRO CP Medium, Cat. 503317). The tube was shaken very gently to re-suspend all cells, and then 50 μl of cells were transferred to each well of a 384-well collagen I coated plate with appropriate liquid handling equipment, e.g. Integra VIAFLO384 or Agilent Bravo. The cells were then cultured for 24 hours in a cell incubator. For HBV infection, after PHH attachment on the culture plate, the plating medium was removed and replenished with PHH culture medium containing HBV virus. The PHH culture medium was prepared with Dulbecco's Modified Eagle Medium (DMEM)/F12 (1:1 in volume ratio) containing 10% fetal bovine serum (Gibco, Cat.10099141), 5 ng/mL human epidermal growth factor (Gibco, Cat.PHG031 IL), 20 ng/mL dexamethasone (Sigma, Cat.D4902-100 mg), 250 ng/mL human recombinant insulin (Gibco, Cat.41400045) and 100 U/mL penicillin. HBV virus at 200 genome equivalent (GE) per cell with 4% PEG8000 (Sigma, Cat.P1458) containing culture medium were added to the PHH culture medium for infection. The cells were then cultured for 24 hours in cell incubator. Then the cell culture supernatant was removed. The HBV-infected PHH were cultured with sandwich culture method with PHH culture medium containing 1% DMSO and 0.25 mg/mL matrix gel for 72 hours. The supernatant was then refreshed with PHH culture medium containing different concentrations of testing compounds for two times with 72-hour interval. At the end of treatment, the supernatant was collected for viral markers measurements, including HBsAg, HBeAg, HBV DNA and cytotoxicity. HBsAg and HBeAg were detected using alphalisa method using their specific antibodies. For HBV DNA detection, HBV DNA Quantitative Fluorescence Diagnostic Kit (Sansure Biotech Inc.) was used following the manufacture's protocol. Cytotoxicity was determined using Cell Counting Kit-8 (CCK8, Dojindo Molecular Technologies, Inc.).

[4] = Human microsome stability assay; format: in vitro ADME; conditions: 1 μM compound, 0.5 mg/mL microsomal protein, 37° C.; detection limit 6.15 mL/min/kg
Description: Human Microsome Stability Assay The human microsomal stability assay is used for early assessment of metabolic stability of a test compound in human liver microsomes. Human liver microsomes (Cat. […] The reactions were initiated by adding NADPH regenerating system. […] Following precipitation and centrifugation, the amount of compound remaining in the samples were determined by LC-MS/MS. Controls of no NADPH regenerating system at zero and 30 minutes were also prepared and analyzed.

[5] = Single dose pharmacokinetics (PK) study in male C57BL/6 mouse; format: in vivo; conditions: for clearance / half-life / Vd / AUC(0-t): male; for clearance / half-life / Vd: C57BL/6, plasma; for clearance / half-life / Vd / F: mouse; for Vd: read-out: VSS; for AUC(0-t): C57BL/6, mouse plasma; for F: dose normalized AUC0-last
Description: Single Dose Pharmacokinetics (PK) Study in Male C57BL/6 Mouse Pharmacokinetic properties of selected compounds were assessed by single dose PK studies in Male C57BL/6 mouse (vendor: Beijing Vital River Laboratory Animal Technology Co., Ltd). Briefly, two groups of animals were administered a single dose of respective compound intravenously (IV, bolus) at 1 mg/kg or orally (PO, by gavage) at 10 mg/kg or 30 mg/kg. […] After centrifugation, the resulting plasma was transferred to clean tubes for bioanalysis with LC/MS/MS. The pharmacokinetic parameters were calculated using non-compartmental analysis. The volume of distribution (Vss), half-life (T1/2) and clearance (CL) were obtained based on the plasma concentration-time curve after IV dose. The peak concentration (Cmax) was recorded directly from experimental observations after PO dose. The area under the plasma concentration-time curve (AUC0-last and AUC0-24 h) was calculated using the linear trapezoidal rule up to the last detectable concentration. The bioavailability (F) was calculated based on the dose normalized AUC0-last after IV and PO dose. The Vss of a drug represents the degree to which a drug is distributed in body tissue rather than the plasma. Vss is directly proportional with the amount of drug distributed into tissue. A higher Vss indicates a greater amount of tissue distribution.

[6] = as above; format: in vivo; conditions: IV dose 0.4 mg/kg
[7] = IV bolus 1 mg/kg, read-out: IV AUC0-24h
[8] = PO 30 mg/kg single dose, read-out: PO AUC0-24h
[9] = PO 10 mg/kg single dose, read-out: PO AUC0-24h

Structure (SMILES) | IC50 [1] [nM] | IC50 [2] [nM] | TI (CC50/IC50 HBsAg) [3] | Clearance of human microsome [4] [mL/min/kg] | clearance ([5]; IV bolus 1 mg/kg) [mL/min/kg] | half-life ([5]; IV bolus 1 mg/kg) [h] | Vd ([5]; IV bolus 1 mg/kg) [L/kg] | AUC(0-t) [5, 7] [µg·h/mL] | AUC(0-t) [5, 8] [µg·h/mL] | F ([5]; PO 30 mg/kg vs IV) [%] | AUC(0-t) ([6]; C57BL/6, mouse plasma, AUC value is dose-normalized, read-out: IV AUC0-24h) [µg·h/mL] | clearance ([6]; C57BL/6, plasma, mouse) [mL/min/kg] | half-life ([6]; C57BL/6, plasma, mouse) [h] | Vd ([6]; C57BL/6, plasma, mouse, read-out: VSS) [L/kg] | AUC(0-t) [5, 9] [µg·h/mL] | F ([5]; PO 10 mg/kg vs IV 1 mg/kg) [%]
CS(=O)(=O)C1(c2ccc(C(=O)NC34CC(c5nc(-c6ccc(Cl)cc6)cs5)(C3)C4)o2)CC1 [Example 1, N-[3-[4-(4-chlorophenyl)thiazol-2-yl]-1-bicyclo[1.1.1]pentanyl]-5-(1-methylsulfonylcyclopropyl)furan-2-carboxamide] | 160 | 120 | 27.88 | ≤6.15 | 0.2 | 23.6 | 0.4 | 42.7 | 1310 | 102 |  |  |  |  |  | 
CS(=O)(=O)C1(c2ccc(C(=O)NC34CC(c5cnn(-c6ccc(Cl)cc6)n5)(C3)C4)o2)CC1 [Example 30, N-[3-[2-(4-chlorophenyl)triazol-4-yl]-1-bicyclo[1.1.1]pentanyl]-5-(1-methylsulfonylcyclopropyl)furan-2-carboxamide] | 60 | 40 | 148.67 | ≤6.15 | 0.19 | 48.4 | 0.74 | 27 | 370 | 46 |  |  |  |  |  | 
CS(=O)(=O)C1(c2ccc(C(=O)NC34CC(c5nc(-c6ccc(Cl)cc6)no5)(C3)C4)o2)CC1 [Example 32, N-[3-[3-(4-chlorophenyl)-1,2,4-oxadiazol-5-yl]-1-bicyclo[1.1.1]pentanyl]-5-(1-methylsulfonylcyclopropyl)furan-2-carboxamide] | 40 | 40 | 112.00 | ≤6.15 | 0.43 | 17.8 | 0.64 | 24.1 | 249 | 35 |  |  |  |  |  | 
CS(=O)(=O)C1(c2nsc(C(=O)NC34CC(c5nc(-c6ccc(Cl)cc6)no5)(C3)C4)n2)CC1 [Example 34, N-[3-[3-(4-chlorophenyl)-1,2,4-oxadiazol-5-yl]-1-bicyclo[1.1.1]pentanyl]-3-(1-methylsulfonylcyclopropyl)-1,2,4-thiadiazole-5-carboxamide] | 20 | 20 | 181.50 | ≤6.15 |  |  |  |  | 270 | 39 | 24.2 | 0.03 | > 40 | 0.93 |  | 
CS(=O)(=O)C1(c2ccc(C(=O)NC34CC(c5noc(-c6ccc(Cl)cc6)n5)(C3)C4)o2)CC1 [Example 40, N-[3-[5-(4-chlorophenyl)-1,2,4-oxadiazol-3-yl]-1-bicyclo[1.1.1]pentanyl]-5-(1-methylsulfonylcyclopropyl)furan-2-carboxamide] | 140 | 100 | 46.00 | ≤6.15 | 0.85 | 12 | 0.83 | 14.9 | 80.8 | 18 |  |  |  |  |  | 
CS(=O)(=O)C1(c2nsc(C(=O)NC34CC(c5noc(-c6ccc(Cl)cc6)n5)(C3)C4)n2)CC1 [Example 41, N-[3-[5-(4-chlorophenyl)-1,2,4-oxadiazol-3-yl]-1-bicyclo[1.1.1]pentanyl]-3-(1-methylsulfonylcyclopropyl)-1,2,4-thiadiazole-5-carboxamide] | 130 | 80 | 65.54 | 14.14 | 0.11 | 67.3 | 0.62 | 34 |  |  |  |  |  |  | 59.7 | 18
CS(=O)(=O)C1(c2nsc(C(=O)NC34CC(c5ccnc(-c6ccc(Cl)cc6)n5)(C3)C4)n2)CC1 [Example 48, N-[3-[2-(4-chlorophenyl)pyrimidin-4-yl]-1-bicyclo[1.1.1]pentanyl]-3-(1-methylsulfonylcyclopropyl)-1,2,4-thiadiazole-5-carboxamide] | 70 | 70 | 127.43 | 10.71 | 0.07 | 53.7 | 0.29 | 70.2 |  |  |  |  |  |  | 629 | 92
CS(=O)(=O)C1(c2nsc(C(=O)NC34CC(c5cnn(-c6ccc(Cl)cc6)n5)(C3)C4)n2)CC1 [Example 60, N-[3-[2-(4-chlorophenyl)triazol-4-yl]-1-bicyclo[1.1.1]pentanyl]-3-(1-methylsulfonylcyclopropyl)-1,2,4-thiadiazole-5-carboxamide] | 17 | 17 | 261.76 | ≤6.15 | 0.1 | 62.4 | 0.55 | 38.1 | 154 | 14 |  |  |  |  |  | 
